In general, pEC50 refers to −log10 of the EC50, conventionally taken in molar units. Read a low pEC50 as a high EC50.

This test has as its system RSV Long strain. Nature of the test: Viral Cytopathic Effect (CPE) Assay. To be noted: human respiratory syncytial virus, 144 h, cell viability after 6 days, Cell Counting kit-8. In kind it is cell-based.

pEC50: −log10 of the molar value.

The compound `CS(=O)(=O)c1nn(Cc2nc3cc(Cl)ccc3n2[C@H]2C[C@@](O)(CO)C2)c2cnccc12` [Example 2-46, trans-3-(5-chloro-2-{[3-(methylsulfonyl)-1H-pyrazolo[3,4-c]pyridin-1-yl]methyl}-1H-benzimidazol-1-yl)-1-(hydroxymethyl)cyclobutanol] had a pEC50 of 8.14. In the case of `CS(=O)(=O)c1nn(Cc2nc3cc(Cl)ccc3n2-c2ccc(F)nc2)c2ccccc12` [Example 3-1, 1-{[5-Chloro-1-(6-fluoropyridin-3-yl)-1H-benzimidazol-2-yl]methyl}-3-(methylsulfonyl)-1H-indazole] it was 8.01; in that of `CS(=O)(=O)c1nn(Cc2nc3cc(Cl)ccc3n2-c2ccc(F)nc2)c2cnccc12` [Example 3-2, 1-{[5-Chloro-1-(6-fluoropyridin-3-yl)-1H-benzimidazol-2-yl]methyl}-3-(methylsulfonyl)-1H-pyrazolo[3,4-c]pyridine], 7.73; in that of `CS(=O)(=O)c1nn(Cc2nc3cc(Cl)ccc3n2-c2ccc(F)nc2)c2c[n+]([O-])ccc12` [Example 3-3, 1-{[5-Chloro-1-(6-fluoropyridin-3-yl)-1H-benzimidazol-2-yl]methyl}-3-(methylsulfonyl)-1H-pyrazolo[3,4-c]pyridine 6-oxide], 5.81. In the case of `COc1ccc(-n2c(Cn3nc(S(C)(=O)=O)c4ccccc43)nc3cc(Cl)ccc32)cn1` [Example 3-4, 1-{[5-Chloro-1-(6-methoxypyridin-3-yl)-1H-benzimidazol-2-yl]methyl}-3-(methylsulfonyl)-1H-indazole] it was 7.48. In the case of `CS(=O)(=O)c1nn(Cc2nc3cc(Cl)ccc3n2-c2ccc(Cl)nc2)c2ccccc12` [Example 3-5, 1-{[5-Chloro-1-(6-chloropyridin-3-yl)-1H-benzimidazol-2-yl]methyl}-3-(methylsulfonyl)-1H-indazole] it was 7.74. Turning to `CS(=O)(=O)c1nn(Cc2nc3cc(Cl)ccc3n2CCCC(F)(F)F)c2ccccc12` [Example 4-1, 1-{[5-Chloro-1-(4,4,4-trifluorobutyl)-1H-benzimidazol-2-yl]methyl}-3-(methylsulfonyl)-1H-indazole], the pEC50 was 7.84. The same measure for `CS(=O)(=O)c1nn(Cc2nc3cc(Cl)ccc3n2CCCC(F)(F)F)c2c[n+]([O-])ccc12` [Example 4-2, 1-{[5-Chloro-1-(4,4,4-trifluorobutyl)-1H-benzimidazol-2-yl]methyl}-3-(methylsulfonyl)-1H-pyrazolo[3,4-c]pyridine 6-oxide]: 7.80; for `CS(=O)(=O)c1nn(Cc2nc3cc(Cl)cc(F)c3n2CCC(F)(F)F)c2cnccc12` [Example 5-1, 1-{[5-Chloro-7-fluoro-1-(3,3,3-trifluoropropyl)-1H-benzimidazol-2-yl]methyl}-3-(methylsulfonyl)-1H-pyrazolo[3,4-c]pyridine]: 7.77. In the case of `CS(=O)(=O)c1nn(Cc2nc3cc(Cl)cc(F)c3n2CCCC(F)(F)F)c2cnccc12` [Example 5-2, 1-{[5-Chloro-7-fluoro-1-(4,4,4-trifluorobutyl)-1H-benzimidazol-2-yl]methyl}-3-(methylsulfonyl)-1H-pyrazolo[3,4-c]pyridine] it was 8.15; in that of `CC(=O)N1CC[C@@H](n2c(Cn3nc(S(C)(=O)=O)c4ccncc43)nc3cc(Cl)ccc32)C1` [Example 6-1, 1-[(3R)-3-(5-Chloro-2-{[3-(methylsulfonyl)-1H-pyrazolo[3,4-c]pyridin-1-yl]methyl}-1H-benzimidazol-1-yl)pyrrolidin-1-yl]ethanone], 8.15; in that of `CC(=O)N1CCC(n2c(Cn3nc(S(C)(=O)=O)c4ccccc43)nc3cc(Cl)ccc32)C1` (stereo not shown) [Example 6-2, 1-[3-(5-Chloro-2-{[3-(methylsulfonyl)-1H-indazol-1-yl]methyl}-1H-benzimidazol-1-yl)pyrrolidin-1-yl]ethanone], 8.06. In the case of `CCC(=O)N1CC[C@@H](n2c(Cn3nc(S(C)(=O)=O)c4ccccc43)nc3cc(Cl)ccc32)C1` [Example 6-3, 1-[(3R)-3-(5-Chloro-2-{[3-(methylsulfonyl)-1H-indazol-1-yl]methyl}-1H-benzimidazol-1-yl)pyrrolidin-1-yl]propan-1-one] it was 8.22. Take `CC(C)C(=O)N1CC[C@@H](n2c(Cn3nc(S(C)(=O)=O)c4ccncc43)nc3cc(Cl)ccc32)C1` [Example 6-4, 1-[(3R)-3-(5-Chloro-2-{[3-(methylsulfonyl)-1H-pyrazolo[3,4-c]pyridin-1-yl]methyl}-1H-benzimidazol-1-yl)pyrrolidin-1-yl]-2-methylpropan-1-one]: the pEC50 is 8.40. The same measure for `CC(C)(O)C(=O)N1CC[C@@H](n2c(Cn3nc(S(C)(=O)=O)c4ccncc43)nc3cc(Cl)ccc32)C1` [Example 6-5, 1-[(3R)-3-(5-Chloro-2-{[3-(methylsulfonyl)-1H-pyrazolo[3,4-c]pyridin-1-yl]methyl}-1H-benzimidazol-1-yl)pyrrolidin-1-yl]-2-hydroxy-2-methylpropan-1-one]: 7.89; for `CS(=O)(=O)c1nn(Cc2nc3cc(Cl)ccc3n2[C@@H]2CCN(S(C)(=O)=O)C2)c2cnccc12` [Example 6-6, 1-({5-Chloro-1-[(3R)-1-(methylsulfonyl)pyrrolidin-3-yl]-1H-benzimidazol-2-yl}methyl)-3-(methylsulfonyl)-1H-pyrazolo[3,4-c]pyridine]: 8.52; for `CS(=O)(=O)c1nn(Cc2nc3cc(Cl)ccc3n2[C@@H]2CCN(CCO)C2)c2cnccc12` [Example 6-7, 2-[(3R)-3-(5-Chloro-2-{[3-(methylsulfonyl)-1H-pyrazolo[3,4-c]pyridin-1-yl]methyl}-1H-benzimidazol-1-yl)pyrrolidin-1-yl]ethanol]: 8.43. Turning to `CS(=O)(=O)c1nn(Cc2nc3cc(Cl)ccc3n2C2CNC(=O)C2)c2cnccc12` (stereo not shown) [Example 7, 4-(5-Chloro-2-{[3-(methylsulfonyl)-1H-pyrazolo[3,4-c]pyridin-1-yl]methyl}-1H-benzimidazol-1-yl)pyrrolidin-2-one], the pEC50 is 8.07. In the case of `CS(=O)(=O)c1nn(Cc2nc3cc(Cl)ccc3n2C2CNC3(COC3)C2)c2cnccc12` (stereo not shown) [Example 8, 1-{[5-Chloro-1-(2-oxa-5-azaspiro[3.4]oct-7-yl)-1H-benzimidazol-2-yl]methyl}-3-(methanesulfonyl)-1H-pyrazolo[3,4-c]pyridine] it was 7.71.

With `CS(=O)(=O)CCn1c(Cn2nc(S(C)(=O)=O)c3ccncc32)cc2cc(Cl)ccc21` [Example 9-1, 1-({5-Chloro-1-[2-(methylsulfonyl)ethyl]-1H-indol-2-yl}methyl)-3-(methylsulfonyl)-1H-pyrazolo[3,4-c]pyridine], the pEC50 is 8.43. The same measure for `CS(=O)(=O)CCCn1c(Cn2nc(S(C)(=O)=O)c3ccncc32)cc2cc(Cl)ccc21` [Example 9-2, 1-({5-Chloro-1-[3-(methylsulfonyl)propyl]-1H-indol-2-yl}methyl)-3-(methylsulfonyl)-1H-pyrazolo[3,4-c]pyridine]: 8.09. The same measure for `CS(=O)(=O)CCn1c(Cn2nc(S(C)(=O)=O)c3ccncc32)cc2cc(Cl)cc(F)c21` [Example 9-3, 1-({5-Chloro-7-fluoro-1-[2-(methylsulfonyl)ethyl]-1H-indol-2-yl}methyl)-3-(methylsulfonyl)-1H-pyrazolo[3,4-c]pyridine]: 8.14.
